Values of other authors, collected in US20070203078A1, “METHOD FOR THE TREATMENT AND DIAGNOSIS OF CERTAIN PSYCHIATRIC DISORDERS RELATED TO THE MENSTRUAL CYCLE” (THE REGENTS OF THE UNIVERSITY OF CALIFORNIA, priority 2004, published 2007).

Target: T1, δ subunit-containing GABAARs (Mus musculus, UniProt P22933)
T1 construct: tonic conductance mediated by δ subunit-containing GABAARs in several classes of neurons; host or cells: neurons (cerebellar granule cells, dentate gyrus granule cells and interneurons are named)
T1 sequence (P22933 25-449): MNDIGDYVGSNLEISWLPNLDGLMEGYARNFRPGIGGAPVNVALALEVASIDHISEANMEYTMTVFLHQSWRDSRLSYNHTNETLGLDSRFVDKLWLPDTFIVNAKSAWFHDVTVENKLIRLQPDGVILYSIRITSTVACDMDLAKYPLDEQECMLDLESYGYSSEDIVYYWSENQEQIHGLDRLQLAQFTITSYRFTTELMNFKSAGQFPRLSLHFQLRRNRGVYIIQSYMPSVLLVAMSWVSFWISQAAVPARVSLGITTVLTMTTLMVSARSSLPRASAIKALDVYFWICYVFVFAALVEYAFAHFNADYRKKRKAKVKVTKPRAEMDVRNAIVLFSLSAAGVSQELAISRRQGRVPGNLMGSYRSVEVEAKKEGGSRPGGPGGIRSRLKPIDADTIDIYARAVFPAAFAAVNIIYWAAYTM
Conditions: THDOC in the physiological range (10 nM)

SMILES: C[C@]12CC[C@@H](O)C[C@H]1CC[C@@H]1[C@@H]2CC[C@]2(C)[C@@H](C(=O)CO)CC[C@@H]12 [THDOC]
- effect on synaptic currents: no effect
- effect on tonic conductance mediated by δ subunit-containing GABAARs (several classes of neurons): significantly potentiate
